Measurements as given in patent US4897254A, “Radioactive compositions for the treatment of calcific tumors” (priority 1987, dated 1990).

Key:
[1] = cited from earlier work
[2] = two-hour rat biodistribution after tail vein injection (NaI scintillation counting of dissected tissues); conditions: in vivo
Source text: Quantitative biodistributions were obtained by injecting 50-100 microliters of the composition into the tail vein of unanesthetized male Sprague Dawley rats. The rats were then placed in cages lined with absorbent paper in order to collect all urine excreted prior to sacrifice. After a given period of time, the rats were sacrificed by cervical dislocation and the various tissues dissected. The samples were then rinsed with saline, blotted dry on absorbent paper and weighed.

[3] = radionuclide; cited from earlier work
[4] = patients with metastatic bone lesions

In the case of NC(c1ccc(O)c([131I])c1)(P(=O)(O)O)P(=O)(O)O [α-amino-(3-iodo-4-hydroxybenzylidene)diphosphonate], the possible metabolite ([1]; in vivo) is listed as “iodide as one of the possible metabolites”.

For “Sm-153-diethylenetriaminepentaacetic acid [Sm-153-DTPA]”, the “skeletal uptake (in words)” value [2] was “low skeletal uptake”.

With “Sm-153-nitrilotriacetic acid [Sm-153-NTA]” the “liver uptake (in words)” value [2] was “high liver uptake”.

For Strontium-89, the blood levels [1, 4] is listed as “high blood levels”, the “lesion to normal bone ratios” value [1, 4] is listed as “low lesion to normal bone ratios” and the half-life [3] is listed as 50.4 days.
